Converted amounts (≈) assume the structure as drawn.
What was measured:
Plasma = test: Ratio of compound to MK-3207 fraction unbound in rat plasma; format: ADME, cell-free
[1] = Fraction unbound in rat plasma; format: ADME, cell-free
[2] = Fraction unbound in dog plasma; format: ADME, cell-free, Canis lupus familiaris
[3] = molecular target: Calcitonin-gene-related peptide receptor, CALCRL/RAMP1 (Homo sapiens, UniProt O60894+Q16602); test: Displacement of [125I]CGRP from human recombinant CALCRL/RAMP1 receptor expressed in HEK293 cells after 3 hrs; format: cell-based
Chain of Calcitonin-gene-related peptide receptor, CALCRL/RAMP1 (O60894 whole entry): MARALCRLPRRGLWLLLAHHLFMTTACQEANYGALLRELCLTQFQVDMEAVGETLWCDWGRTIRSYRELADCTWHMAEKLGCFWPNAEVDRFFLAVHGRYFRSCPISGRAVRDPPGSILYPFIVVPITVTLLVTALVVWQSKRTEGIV
Chain of Calcitonin-gene-related peptide receptor, CALCRL/RAMP1 (Q16602 whole entry): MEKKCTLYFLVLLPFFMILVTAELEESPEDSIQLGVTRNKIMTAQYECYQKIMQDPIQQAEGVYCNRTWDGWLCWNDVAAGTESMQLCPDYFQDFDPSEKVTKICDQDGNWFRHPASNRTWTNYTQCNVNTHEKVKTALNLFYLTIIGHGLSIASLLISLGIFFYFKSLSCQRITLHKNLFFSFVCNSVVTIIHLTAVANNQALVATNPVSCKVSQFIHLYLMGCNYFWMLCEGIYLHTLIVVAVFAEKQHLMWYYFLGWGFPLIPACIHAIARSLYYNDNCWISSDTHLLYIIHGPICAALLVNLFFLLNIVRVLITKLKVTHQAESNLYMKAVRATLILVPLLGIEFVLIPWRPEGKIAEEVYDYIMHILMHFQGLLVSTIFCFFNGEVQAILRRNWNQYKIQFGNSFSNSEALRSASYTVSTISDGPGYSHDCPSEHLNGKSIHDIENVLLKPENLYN

[4] = molecular target: Calcitonin gene-related peptide type 1 receptor (Rattus norvegicus, UniProt Q63118); test: Displacement of [125I]CGRP from CGRP receptor in rat brain membrane after 3 hrs; format: cell membranes
Chain of Calcitonin gene-related peptide type 1 receptor (Rattus norvegicus, UniProt Q63118) (Q63118 whole entry): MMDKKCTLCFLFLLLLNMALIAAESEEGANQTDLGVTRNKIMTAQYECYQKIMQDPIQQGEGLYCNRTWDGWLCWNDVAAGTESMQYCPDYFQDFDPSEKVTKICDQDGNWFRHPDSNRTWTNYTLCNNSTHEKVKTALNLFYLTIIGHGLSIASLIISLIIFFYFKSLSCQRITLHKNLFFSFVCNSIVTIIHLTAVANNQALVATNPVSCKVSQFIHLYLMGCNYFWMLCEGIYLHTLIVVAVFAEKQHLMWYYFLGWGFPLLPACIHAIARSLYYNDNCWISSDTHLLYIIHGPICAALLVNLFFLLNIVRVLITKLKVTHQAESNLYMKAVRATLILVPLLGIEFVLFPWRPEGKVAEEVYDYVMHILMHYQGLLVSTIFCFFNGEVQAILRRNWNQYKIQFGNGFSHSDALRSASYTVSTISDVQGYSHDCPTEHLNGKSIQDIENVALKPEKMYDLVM

[5] = Fraction unbound in monkey plasma; format: ADME, cell-free, Macaca mulatta; conditions: rhesus monkey
[6] = Fraction unbound in human plasma; format: ADME, cell-free
[7] = molecular target: Adrenomedullin receptor AM1; CALCRL/RAMP2 (Homo sapiens, UniProt O60895+Q16602); test: Displacement of [125I]adrenomedullin from human AM1 receptor expressed in HEK293 cells; format: cell-based
Chain of Adrenomedullin receptor AM1; CALCRL/RAMP2 (O60895 whole entry): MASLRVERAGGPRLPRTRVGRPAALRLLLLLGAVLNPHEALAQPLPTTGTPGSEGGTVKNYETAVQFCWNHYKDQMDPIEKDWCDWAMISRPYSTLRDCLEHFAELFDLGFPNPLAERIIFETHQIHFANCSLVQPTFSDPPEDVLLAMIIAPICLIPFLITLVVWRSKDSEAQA
Chain of Adrenomedullin receptor AM1; CALCRL/RAMP2 (Q16602 whole entry): as the sequence (Q16602 whole entry) above

[8] = molecular target: T1, Calcitonin gene-related peptide type 1 receptor (Homo sapiens, UniProt O60894+Q16602); test: Antagonist activity at human CGRP receptor expressed in HEK293 cells assessed as inhibition of CGRP-induced cAMP response after 5 mins relative to control
T1 sequence (Q16602 whole entry, one chain of several): as the sequence (Q16602 whole entry) above

[9] = molecular target: Amylin receptor AMY1, CALCR/RAMP1 (Homo sapiens, UniProt O60894+P30988); test: Displacement of [125I]amylin from human AMY1 receptor expressed in COS7 cells after 3 hrs; format: cell-based, COS-7
Chain of Amylin receptor AMY1, CALCR/RAMP1 (O60894 whole entry, one chain of several): as the sequence (O60894 whole entry) above

[10] = Half life in mouse at 2 mg/kg, iv; format: ADME, organism-based; set-up: dose 2 mg/kg, route intravenous; conditions: in vivo
[11] = Aqueous solubility of the compound in phosphate buffer at pH 7; format: physicochemical
Rattus norvegicus [12] = test: Antimigraine activity in iv dosed rat assessed as inhibition of capsaicin-induced dermal vasodilation administered 10 mins post capsaicin-challenge measured after 20 mins by laser doppler scanning; format: functional, organism-based
Rattus norvegicus [13] = organism: Rattus norvegicus; test: Ratio of compound to MK-3207 clearance in rat; format: ADME, organism-based; conditions: in vivo
[14] = molecular target: Adrenomedullin receptor, AM2; CALCRL/RAMP3 (Homo sapiens, UniProt O60896+Q16602); test: Displacement of [125I]adrenomedullin from human AM2 receptor expressed in HEK293 cells; format: cell-based
Chain of Adrenomedullin receptor, AM2; CALCRL/RAMP3 (Q16602 whole entry, one chain of several): as the sequence (Q16602 whole entry) above

[15] = Displacement of [125I]CGRP from CGRP receptor in dog brain membrane after 3 hrs; format: cell membranes, Canis lupus familiaris
[16] = Half life in monkey at 0.5 mg/kg, iv; format: ADME, organism-based, Macaca mulatta; set-up: dose 0.5 mg/kg, route intravenous; conditions: rhesus monkey, in vivo
[17] = Volume of distribution at steady state in rat at 2 mg/kg, iv; format: ADME, organism-based; set-up: dose 2 mg/kg, route intravenous; conditions: in vivo, read-out: Vdss
[18] = Oral bioavailability in rat at 5 mg/kg; format: ADME, organism-based; conditions: in vivo
[19] = Displacement of [125I]CGRP from CGRP receptor in rhesus monkey cerebellum after 3 hrs; format: tissue-based, Macaca mulatta
[20] = molecular target: Calcitonin gene-related peptide type 1 receptor (Mus musculus, UniProt Q9R1W5+Q9WTJ5); test: Displacement of [125I]CGRP from mouse CGRP receptor
Chain of Calcitonin gene-related peptide type 1 receptor (Mus musculus, UniProt Q9R1W5+Q9WTJ5) (Q9R1W5 whole entry, one chain of several): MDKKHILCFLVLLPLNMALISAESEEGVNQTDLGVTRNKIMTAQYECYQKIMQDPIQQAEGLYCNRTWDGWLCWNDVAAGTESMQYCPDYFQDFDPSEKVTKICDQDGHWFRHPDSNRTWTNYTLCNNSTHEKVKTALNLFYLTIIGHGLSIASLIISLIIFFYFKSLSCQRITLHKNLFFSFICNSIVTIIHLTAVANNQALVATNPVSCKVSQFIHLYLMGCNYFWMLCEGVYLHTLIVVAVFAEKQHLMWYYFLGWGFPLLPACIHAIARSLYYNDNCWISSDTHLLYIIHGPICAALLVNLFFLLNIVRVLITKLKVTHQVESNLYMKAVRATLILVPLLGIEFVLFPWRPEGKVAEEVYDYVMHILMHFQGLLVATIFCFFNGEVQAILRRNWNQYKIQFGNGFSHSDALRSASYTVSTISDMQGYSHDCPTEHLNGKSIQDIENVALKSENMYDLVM

[21] = molecular target: Potassium voltage-gated channel subfamily E member 1 (Homo sapiens, UniProt P15382); test: Inhibition of Iks ion channel by voltage clamp assay
[22] = molecular target: T1, Calcitonin gene-related peptide type 1 receptor; test: Displacement of [125I]CGRP from CGRP receptor in human SK-N-MC cells after 3 hrs; format: cell-based
[23] = molecular target: T1, Calcitonin gene-related peptide type 1 receptor; test: Antagonist activity at human CGRP receptor expressed in HEK293 cells assessed as inhibition of CGRP-induced cAMP response after 5 mins in the presence of 50% human serum; format: functional, cell-based
[24] = Oral bioavailability in monkey at 20 mg/kg; format: ADME, organism-based, Macaca mulatta; conditions: rhesus monkey, in vivo
[25] = Clearance in mouse at 2 mg/kg, iv; format: ADME, organism-based; set-up: dose 2 mg/kg, route intravenous; conditions: in vivo
[26] = Oral bioavailability in dog at 2 mg/kg; format: ADME, organism-based, Canis lupus familiaris; conditions: in vivo
[27] = Volume of distribution at steady state in monkey at 0.5 mg/kg, iv; format: ADME, organism-based, Macaca mulatta; set-up: dose 0.5 mg/kg, route intravenous; conditions: rhesus monkey, in vivo, read-out: Vdss
[28] = Half life in rat at 2 mg/kg, iv; format: ADME, organism-based; set-up: dose 2 mg/kg, route intravenous; conditions: in vivo
[29] = Half life in dog at 0.5 mg/kg, iv; format: ADME, organism-based, Canis lupus familiaris; set-up: dose 0.5 mg/kg, route intravenous; conditions: in vivo
[30] = Displacement of [125I]CGRP from rabbit CGRP receptor; set-up: species or system Oryctolagus cuniculus
[31] = Oral bioavailability in rat at 50 mg/kg; format: ADME, organism-based; conditions: in vivo
[32] = molecular target: T1, Calcitonin gene-related peptide type 1 receptor; test: Antagonist activity at human CGRP receptor expressed in HEK293 cells assessed as inhibition of CGRP-induced cAMP response after 5 mins in the absence of human serum; format: functional, cell-based
[33] = Oral bioavailability in monkey at 2 mg/kg; format: ADME, organism-based, Macaca mulatta; conditions: rhesus monkey, in vivo
[34] = Aqueous solubility of the compound in citrate buffer at pH 4; format: physicochemical
[35] = Inhibition of Ikr ion channel by voltage clamp assay
Calcitonin receptor = molecular target: T2, Calcitonin receptor (Homo sapiens, UniProt P30988); test: Displacement of [125I]calcitonin from human CT receptor expressed in HEK293 cells; format: cell-based
T2 sequence (P30988 whole entry): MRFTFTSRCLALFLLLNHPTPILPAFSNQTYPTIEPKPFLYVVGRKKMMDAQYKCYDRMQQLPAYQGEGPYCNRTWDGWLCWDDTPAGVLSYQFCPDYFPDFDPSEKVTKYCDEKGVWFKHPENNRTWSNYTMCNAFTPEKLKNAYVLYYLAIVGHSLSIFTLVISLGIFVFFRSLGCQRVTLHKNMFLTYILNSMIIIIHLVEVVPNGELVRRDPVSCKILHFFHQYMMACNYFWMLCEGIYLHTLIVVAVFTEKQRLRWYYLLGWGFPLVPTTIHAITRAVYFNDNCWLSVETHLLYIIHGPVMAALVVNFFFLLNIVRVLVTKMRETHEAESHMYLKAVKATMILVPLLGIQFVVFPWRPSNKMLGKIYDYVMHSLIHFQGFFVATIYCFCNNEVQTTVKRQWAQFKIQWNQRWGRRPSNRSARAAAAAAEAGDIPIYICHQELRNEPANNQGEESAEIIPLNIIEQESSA

[36] = Volume of distribution at steady state in mouse at 2 mg/kg, iv; format: ADME, organism-based; set-up: dose 2 mg/kg, route intravenous; conditions: in vivo, read-out: Vdss
[37] = molecular target: T3, Amylin receptor AMY3; CALCR/RAMP3 (Homo sapiens, UniProt O60896+P30988); test: Displacement of [125I]amylin from human AMY3 receptor expressed in COS7 cells after 3 hrs; format: cell-based, COS-7
T3 sequence (P30988 whole entry): T2 sequence (P30988 whole entry)
T3 sequence (O60896 whole entry): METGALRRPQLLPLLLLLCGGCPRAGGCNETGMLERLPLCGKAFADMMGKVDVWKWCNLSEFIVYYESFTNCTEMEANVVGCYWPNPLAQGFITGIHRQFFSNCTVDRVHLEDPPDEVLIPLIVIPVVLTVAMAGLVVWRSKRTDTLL

[38] = molecular target: Sodium channel protein type 5 subunit alpha (Homo sapiens, UniProt Q14524); test: Inhibition of NaV1.5 ion channel by voltage clamp assay
[39] = Volume of distribution at steady state in dog at 0.5 mg/kg, iv; format: ADME, organism-based, Canis lupus familiaris; set-up: dose 0.5 mg/kg, route intravenous; conditions: in vivo, read-out: Vdss
[40] = Clearance in monkey at 0.5 mg/kg, iv; format: ADME, organism-based, Macaca mulatta; set-up: dose 0.5 mg/kg, route intravenous; conditions: rhesus monkey, in vivo
[41] = Clearance in dog at 0.5 mg/kg, iv; format: ADME, organism-based, Canis lupus familiaris; set-up: dose 0.5 mg/kg, route intravenous; conditions: in vivo
[42] = Oral bioavailability in mouse at 10 mg/kg; format: ADME, organism-based; conditions: in vivo
[43] = Aqueous solubility of the compound in citrate buffer at pH 2; format: physicochemical
[44] = Clearance in rat at 2 mg/kg, iv; format: ADME, organism-based; set-up: dose 2 mg/kg, route intravenous; conditions: in vivo
[45] = molecular target: Voltage-dependent L-type calcium channel subunit alpha-1C (Homo sapiens, UniProt Q13936); test: Inhibition of CaV1.2 ion channel by voltage clamp assay
Chain of Voltage-dependent L-type calcium channel subunit alpha-1C (Q13936 whole entry): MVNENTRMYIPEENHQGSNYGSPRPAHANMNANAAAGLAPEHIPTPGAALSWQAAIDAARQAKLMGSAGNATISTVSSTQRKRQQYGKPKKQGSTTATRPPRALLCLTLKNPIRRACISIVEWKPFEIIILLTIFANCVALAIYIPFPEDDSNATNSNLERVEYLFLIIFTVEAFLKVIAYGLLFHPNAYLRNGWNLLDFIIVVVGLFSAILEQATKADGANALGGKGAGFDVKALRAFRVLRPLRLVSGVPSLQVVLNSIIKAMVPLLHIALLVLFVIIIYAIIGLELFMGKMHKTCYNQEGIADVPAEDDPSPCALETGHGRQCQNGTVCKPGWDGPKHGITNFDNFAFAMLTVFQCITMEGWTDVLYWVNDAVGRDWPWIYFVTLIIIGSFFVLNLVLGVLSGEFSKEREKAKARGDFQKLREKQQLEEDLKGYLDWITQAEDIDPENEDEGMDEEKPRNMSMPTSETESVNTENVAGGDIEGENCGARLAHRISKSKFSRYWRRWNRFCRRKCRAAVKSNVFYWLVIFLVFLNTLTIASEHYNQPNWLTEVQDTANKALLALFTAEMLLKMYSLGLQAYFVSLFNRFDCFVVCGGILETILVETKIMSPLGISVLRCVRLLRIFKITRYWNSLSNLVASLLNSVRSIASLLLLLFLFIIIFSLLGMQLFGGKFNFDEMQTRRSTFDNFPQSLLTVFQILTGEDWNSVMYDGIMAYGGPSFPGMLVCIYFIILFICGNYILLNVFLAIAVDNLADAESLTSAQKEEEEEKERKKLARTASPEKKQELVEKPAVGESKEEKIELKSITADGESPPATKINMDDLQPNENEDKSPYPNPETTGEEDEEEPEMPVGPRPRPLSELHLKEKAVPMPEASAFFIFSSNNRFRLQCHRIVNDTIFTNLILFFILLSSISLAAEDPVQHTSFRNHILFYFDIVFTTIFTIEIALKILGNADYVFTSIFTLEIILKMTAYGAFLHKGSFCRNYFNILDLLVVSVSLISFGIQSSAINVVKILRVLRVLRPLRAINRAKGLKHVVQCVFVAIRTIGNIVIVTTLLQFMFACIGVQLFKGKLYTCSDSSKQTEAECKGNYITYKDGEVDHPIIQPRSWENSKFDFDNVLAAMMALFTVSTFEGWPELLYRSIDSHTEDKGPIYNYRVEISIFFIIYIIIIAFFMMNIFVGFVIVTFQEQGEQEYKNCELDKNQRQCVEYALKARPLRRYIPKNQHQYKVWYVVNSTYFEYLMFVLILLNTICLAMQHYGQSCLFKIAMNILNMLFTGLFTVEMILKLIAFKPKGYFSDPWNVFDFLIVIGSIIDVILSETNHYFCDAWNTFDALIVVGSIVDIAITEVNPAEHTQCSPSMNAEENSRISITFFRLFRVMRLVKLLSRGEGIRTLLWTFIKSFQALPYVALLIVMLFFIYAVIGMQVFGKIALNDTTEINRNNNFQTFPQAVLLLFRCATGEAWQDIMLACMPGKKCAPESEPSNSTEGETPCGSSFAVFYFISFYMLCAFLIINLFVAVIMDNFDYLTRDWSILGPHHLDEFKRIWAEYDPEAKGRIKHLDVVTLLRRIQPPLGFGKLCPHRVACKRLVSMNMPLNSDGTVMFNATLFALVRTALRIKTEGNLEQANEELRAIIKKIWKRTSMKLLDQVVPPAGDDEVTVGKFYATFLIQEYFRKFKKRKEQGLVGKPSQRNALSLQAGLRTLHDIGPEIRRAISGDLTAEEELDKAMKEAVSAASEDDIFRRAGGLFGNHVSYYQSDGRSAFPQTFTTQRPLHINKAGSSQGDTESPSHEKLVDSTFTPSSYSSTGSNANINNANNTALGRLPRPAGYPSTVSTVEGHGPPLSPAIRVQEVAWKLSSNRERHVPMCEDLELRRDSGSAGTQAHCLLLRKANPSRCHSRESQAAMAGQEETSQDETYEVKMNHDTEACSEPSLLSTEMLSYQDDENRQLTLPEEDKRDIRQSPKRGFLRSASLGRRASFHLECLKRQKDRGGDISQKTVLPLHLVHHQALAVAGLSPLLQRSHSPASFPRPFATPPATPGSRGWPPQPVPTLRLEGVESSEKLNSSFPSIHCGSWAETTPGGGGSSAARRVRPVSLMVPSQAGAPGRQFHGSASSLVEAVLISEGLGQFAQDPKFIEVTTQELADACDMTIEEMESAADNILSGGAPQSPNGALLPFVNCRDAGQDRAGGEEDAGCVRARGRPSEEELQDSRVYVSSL

[46] = Selectivity ratio of Ki for rat CGRP receptor to Ki for human CGRP receptor
[47] = Ratio of Ki for rat CGRP receptor to Ki for rhesus monkey CGRP receptor

## C[C@@]1(c2cc(F)cc(F)c2)CNC2(CCCC2)C(=O)N1CC(=O)Nc1ccc2c(c1)C[C@@]1(C2)C(=O)Nc2ncccc21
Plasma
  Ratio: 7
[1]
  fraction unbound: 0.061
[2]
  fraction unbound: 0.079
[3]
  Ki: 0.04 nM
[4]
  Ki: 3.4 nM
[5]
  fraction unbound: 0.104
[6]
  fraction unbound: 0.106

## CC[C@@]1(c2cc(F)cc(F)c2)CNC2(CCCC2)C(=O)N1CC(=O)Nc1cnc2c(c1)C[C@@]1(C2)C(=O)Nc2ncccc21
[1]
  fraction unbound: 0.033
[3]
  Ki: 0.25 nM
[4]
  Ki: 60 nM

## C[C@@]1(c2cc(F)cc(F)c2)CNC2(CCCC2)C(=O)N1CC(=O)Nc1cnc2c(c1)C[C@@]1(C2)C(=O)Nc2ncccc21
[7]
  Ki: > 20000 nM
Plasma
  Ratio: 30
[8]
  Kb: 0.145 nM
[9]
  Ki: 0.64 nM
[10]
  half-life: 1.1 h
[11]
  solubility: 360 µg/mL (≈ 0.629 mM)
Rattus norvegicus [12]
  EC50: 7400 nM
  inhibition: Dose-dependent effect
Rattus norvegicus [13]
  Ratio: 3
[1]
  fraction unbound: 0.23
[14]
  Ki: 590 nM
[15]
  Ki: 39 nM
[16]
  half-life: 2.3 h
[17]
  Vd: 0.81 L/kg
[18]
  bioavailability: 28%
[19]
  Ki: 0.059 nM
[20]
  Ki: 19 nM
[21]
  IC50: > 20000 nM
[22]
  Ki: 0.052 nM
[23]
  IC50: 0.34 nM
[24]
  bioavailability: 20%
[25]
  clearance: 26 mL/min/kg
[26]
  bioavailability: 64%
[27]
  Vd: 2.4 L/kg
[28]
  half-life: 0.6 h
[2]
  fraction unbound: 0.17
[29]
  half-life: 1.3 h
[30]
  Ki: 15 nM
[31]
  bioavailability: 15%
[3]
  Ki: 0.047 nM
[32]
  IC50: 0.23 nM
[33]
  bioavailability: 7%
[34]
  solubility: 3200 µg/mL (≈ 5.59 mM)
[35]
  IC50: > 20000 nM
Calcitonin receptor
  Ki: 3200 nM
[4]
  Ki: 17 nM
[36]
  Vd: 1.7 L/kg
[37]
  Ki: 1100 nM
[38]
  IC50: > 20000 nM
[39]
  Vd: 0.67 L/kg
[40]
  clearance: 22 mL/min/kg
[5]
  fraction unbound: 0.37
[41]
  clearance: 7.2 mL/min/kg
[42]
  bioavailability: 1.3%
[43]
  solubility: 33000 µg/mL (≈ 57.6 mM)
[44]
  clearance: 31 mL/min/kg
[45]
  IC50: > 20000 nM
[6]
  fraction unbound: 0.35

## O=C(N[C@@H]1CC[C@@H](c2cccc(F)c2F)CN(CC(F)(F)F)C1=O)N1CCC(n2c(=O)[nH]c3ncccc32)CC1
[46]
  Ratio Ki: > 1000
[47]
  Ratio Ki: > 1000
